Test results: patent US6913900B2, “Plasma prekallikrein activation and kallikrein production assay” (Nippon Zoki Pharmaceutical Co., Ltd., priority 2001, dated 2005)
Entries after “also recorded” stand apart in the source; their conditions may differ. Read-outs that look alike come from different tables or passages of the source.

Key:
[1] = system: prekallikrein activating factor (PK activation); assay: Inhibition profile of PK activation (prekallikrein activation assay, kallikrein substrate S-2302, O.D. 405 nm); assay type: biochemical, human
Source text: In embodiments of the invention the reaction time may be fixed or “set.” The reaction time can be “set” by stopping the production of kallikrein, for example, by adding a prekallikrein activation inhibitor to the system of the present invention after a desired reaction time. Also, by adding a coloring or fluorescent synthetic substrate to the reaction system from the start or beginning, the produced amount of kallikrein (coloring or fluorescent intensity) may be observed at different lapses of time. […] When the reaction is stopped, the produced kallikrein can be quantitatively determined using an enzymatic activity of kallikrein as a target, for example, by applying a substrate to kallikrein.
When the reaction is stopped, the produced plasma kallikrein can be determined using an enzymatic activity of the plasma kallikrein as a target by utilizing a substrate to the plasma kallikrein.
(§1) Assays were performed in HEPES buffered saline (HBS) (10 mM Hepes, 137 mM NaCl, 4 mM KCl, 11 mM D-glucose, and 0.5 mg/ml RIA grade bovine serum albumin, pH 7.4), with a kallikrein specific substrate (0.6 mM S-2302). For assays using the cell-free system, 96 well disposable polystyrene microtiter plates (Dynatech Laboratories, Chantilly, Va.) were used. These microtiter plates were pretreated with 1% polyethylene glycol (Aquacide III, Calbiochem, Calif.) in HBS for two hours to prevent adsorption of proteins to polystyrene. The absorbance (O.D. at 405 nm or optical density at 405 nm) was monitored at room temperature on a Molecular Devices (Sunnyvale, Calif.) THERMOmax microplate reader. Just prior to the assay all the proteins were treated with 2.0 mM (4-amidinophenyl)methanesulfonyl fluoride (APMSF) for 15 minutes at pH 5.5, after which they were diluted 1:100 with HBS and incubated for 45 minutes to allow for the decomposition of any unreacted APMSF at the neutral pH. The proteins were treated with APMSF before use and were inactivated for the sake of safety.

[2] = system: activation of prekallikrein in the presence of phosphate and zinc ions; assay: Prekallikrein activation by phosphate ion (PBS, zinc, HK, PK, S-2302); assay type: biochemical; conditions: phosphate ion activator, no FXIIa, HUVEC or HSP 90
Protocol: as §1, with “safety. […]” for “safety.”

[3] = system: HSP 90-dependent prekallikrein activation; assay: HSP 90-dependent prekallikrein activation (HSP 90, HK, zinc, PK, S-2302); assay type: biochemical, human; conditions: purified HSP 90 activator, HK and zinc present
Protocol: as §1
HSP 90 was confirmed as a prekallikrein activator, which was functionally indistinguishable from the cytosolic extract (FIG. 2). A HUVEC activator system was functionally effective as well (FIG. 1). […] The incubation mixture used is as follows: […]

## [Cl][Hg][Cl] [HgCl2]
[1]
  inhibition of the prekallikrein activator in this system (in words): good inhibitors
[1]; inhibitor concentration 1 mM
  % inhibition of PK activation: 98%

## CC(C)Cc1ccc(C(C)C(=O)O)cc1 (stereo not shown) [Ibuprofen]
[2]
  inhibition of prekallikrein activation in the presence of phosphate and zinc ions (in words): inhibited by Ibuprofen dose-dependently
[3]
  inhibition of HSP 90-dependent prekallikrein activation (in words): inhibited by Ibuprofen dose-dependently

## N[C@@H](CS)C(=O)O [Cysteine]
[1]; inhibitor concentration 10 mM
  % inhibition of PK activation: 59.6%

## Cystatin
[1]; inhibitor concentration 10 μg/ml
  % inhibition of PK activation: 4.5%

## C[C@H](CS)C(=O)N1CCC[C@H]1C(=O)O [Captopril]
[1]
  inhibition of the prekallikrein activator in this system (in words): good inhibitors
[1]; inhibitor concentration 10 mM
  % inhibition of PK activation: 97.9%

## Aprotinin
[1]
  inhibition of the prekallikrein activator in this system (in words): good inhibitors
[1]; inhibitor concentration 100 μM
  % inhibition of PK activation: 96.4%

## O=C(O)CN(CCN(CC(=O)O)CC(=O)O)CC(=O)O [EDTA]
[1]
  % inhibition of PK activation: 85.4%
  inhibition of the prekallikrein activator in this system (in words): good inhibitors

## N[C@@H](CCC(=O)N[C@@H](CS)C(=O)NCC(=O)O)C(=O)O [Glutathione]
[1]; inhibitor concentration 100 μM
  % inhibition of PK activation: 18.6%

## Corn Trypsin Inhibitor
[1]; inhibitor concentration 10 μM
  % inhibition of PK activation: 94.3%
[1]; listed as CTI
  inhibition of the prekallikrein activator in this system (in words): good inhibitors; also recorded: could be inhibited by CTI
[3]
  inhibition of HSP 90-dependent prekallikrein activation (in words): inhibited by CTI

## OCCS [Mercaptoethanol]
[1]
  inhibition of the prekallikrein activator in this system (in words): good inhibitors
[1]; inhibitor concentration 5%
  % inhibition of PK activation: 85.5%

## NC(=O)CI [Iodoacetamide]
[1]; inhibitor concentration 10 mM
  % inhibition of PK activation: 7%

## O[C@@H](CS)[C@@H](O)CS [DTT]
[1]; inhibitor concentration 10 mM
  % inhibition of PK activation: 69.1%

B1: SBTI: soybean trypsin inhibitor (SBTI) (protein, UniProt P01070 25-205, looked up)
Trypsin inhibitor A: DFVLDNEGNPLENGGTYYILSDITAFGGIRAAPTGNERCPLTVVQSRNELDKGIGTIISSPYRIRFIAEGHPLSLKFDSFAVIMLCVGIPTEWSVVEDLPEGPAVKIGENKDAMDGWFRLERVSDDEFNNYKLVFCPQQAEDDKCGDIGISIDHDDGTRRLVVSKNKPLVVQFQKLDKESL
[1]
  inhibition of the prekallikrein activator in this system (in words): good inhibitors
[1]; inhibitor concentration 50 μg/ml
  % inhibition of PK activation: 98.6%
